# According to US9943506B2, “BCL6 inhibitors as anticancer agents” (Cornell University, priority 2013, dated 2018):
# Where two headings read alike, the source gives them in different places.
# Tests used:
# Format in all cases: cell-based
# Ly7 DLBCL cells = experiment: Growth inhibition of DLBCL cells, Ly7
# Method: (§1) 50,000 cells per well were treated for 48 hours with different concentrations of the compounds in 96 well plates, using DMSO as a control. Then, viability was determined with Cell Titer Blue™ (Promega) and growth inhibition was calculated as the percentage of viable cells with respect to cells treated with DMSO alone. GI50 values were determined by dose-response curves.
# (§2) 293T cells were grown in Dulbecco's modified Eagles medium supplemented with 10% fetal bovine serum (FBS) (Gemini Bio-Products, Woodland, Calif.) and 1% penicillin-streptomycin. DLBCL cell lines OCI-Ly1, OCI-Ly1-B50, OCI-Ly7, OCI-Ly10 and OCI-Ly19 were grown in 80% Iscove's medium, 20% FBS and penicillin G/streptomycin. DLBCL cell lines Toledo, Farage, SU-DHL4, DOHH-2, SC-1, RCK8, TMD8, HBL-1, Ly3, Karpas 422 and SU-DHL6 were cultured in 90% RPMI medium, 10% FBS, 2 mM glutamine, 10 mM Hepes and penicillin G/streptomycin. All cell lines were cultured at 37° C. in a humidified atmosphere of 5% CO2.
# SUDHL6 DLBCL cells = experiment: Growth inhibition of DLBCL cells, SUDHL6; conditions: Homo sapiens, SU-DHL-6
# Method: as §1, §2
# Toledo DLBCL cells = experiment: Growth inhibition of DLBCL cells, Toledo; conditions: Homo sapiens
# Method: as §1, §2
# Ly10 DLBCL cells = experiment: Growth inhibition of DLBCL cells, Ly10; conditions: Table 2, BCL-6 dependent, 48 hours
# Method: as §1, §2
# Ly3 DLBCL cells = experiment: Growth inhibition of DLBCL cells, Ly3; conditions: Table 2; BCL-6 dependent; 48 hours
# Method: as §1, §2
# Karpas 422 DLBCL cells = experiment: Growth inhibition of DLBCL cells, Karpas 422; conditions: Homo sapiens, Table 2, BCL-6 independent, 48 hours, read-out: GI50 Karpas 422
# Method: as §1, §2
# Ly1B50 DLBCL cells = experiment: Growth inhibition of DLBCL cells, Ly1B50; conditions: Table 2; BCL-6 independent; 48 hours
# Method: as §1, §2
# [1] = Table 10, BCL6 dependent, read-out: GI50 SUDHL6
# [2] = Table 2, BCL-6 dependent, 48 hours, read-out: GI50 SUDH6
# [3] = 48 h, Table 2, BCL-6 independent
# [4] = Table 2, BCL-6 dependent, 48 hours
# [5] = Table 2, BCL-6 independent, 48 hours
Compound,GI50 (SUDHL6 DLBCL cells; [1]),"GI50 (SUDHL6 DLBCL cells; Table 13, BCL6 dependent, read-out: GI50 SUDHL6)",GI50 (SUDHL6 DLBCL cells; [2]),GI50 (Karpas 422 DLBCL cells),"GI50 (Ly7 DLBCL cells; Table 10, BCL6 dependent)","GI50 (Toledo DLBCL cells; Table 10, BCL6 independent)","GI50 (Ly7 DLBCL cells; Table 13, BCL6 dependent)","GI50 (Toledo DLBCL cells; Table 13, BCL6 independent)",GI50 (Ly10 DLBCL cells),"GI50 (Ly7 DLBCL cells; 48 h, Table 2, BCL-6 dependent)",GI50 (Ly3 DLBCL cells),GI50 (Toledo DLBCL cells; [3]),GI50 (Ly1B50 DLBCL cells),GI50 (Ly7 DLBCL cells; [4]),GI50 (Toledo DLBCL cells; [5])
"O=C(O)CCN1C(=O)/C(=C2/C(=O)Nc3c(Cl)cc(Cl)cc32)SC1=S [Compound 1093, (Z)-3-(5-(5,7-Dichloro-2-oxoindolin-3-ylidene)-4-oxo-2-thioxothiazolidin-3-yl)propanoic acid]",,,> 40 µM,> 40 µM,,,,,21 ± 12 µM,30 ± 9 µM,> 40 µM,> 40 µM,> 40 µM,,
"COc1cc(Br)cc2c1NC(=O)/C2=C1\SC(=S)N(CCC(=O)O)C1=O [Compound 1113, (Z)-3-(5-(5-Bromo-7-methoxy-2-oxoindolin-3-ylidene)-4-oxo-2-thioxothiazolidin-3-yl)propanoic acid]",,,> 40 µM,> 40 µM,,,,,> 40 µM,12 ± 7 µM,> 40 µM,> 40 µM,> 40 µM,,
"O=C(O)CCN1C(=O)/C(=C2/C(=O)Nc3ccc(F)cc32)SC1=S [Compound 1115, (Z)-3-(5-(5-Fluoro-2-oxoindolin-3-ylidene)-4-oxo-2-thioxothiazolidin-3-yl)propanoic acid]",,,26 ± 7 µM,> 40 µM,,,,,34 ± 3 µM,24 ± 6 µM,22 ± 9 µM,> 40 µM,> 40 µM,,
"O=C(O)CCN1C(=O)/C(=C2/C(=O)Nc3c(F)cccc32)SC1=S [Compound 1117, (Z)-3-(5-(7-Fluoro-2-oxoindolin-3-ylidene)-4-oxo-2-thioxothiazolidin-3-yl)propanoic acid]",,,25 ± 4 µM,> 40 µM,,,,,> 40 µM,36 ± 1 µM,21 ± 4 µM,> 40 µM,> 40 µM,,
"O=C(O)CCN1C(=O)/C(=C2/C(=O)Nc3ccc(Br)cc32)SC1=S [Compound 1165, (Z)-3-(5-(5-Bromo-2-oxoindolin-3-ylidene)-4-oxo-2-thioxothiazolidin-3-yl)propanoic acid]",,,> 40 µM,> 40 µM,,,,,25 ± 9 µM,> 40 µM,17 ± 6 µM,> 40 µM,> 40 µM,,
"O=C(O)CCN1C(=O)/C(=C2/C(=O)Nc3c(Cl)cccc32)SC1=S [Compound 1167, (Z)-3-(5-(7-Chloro-2-oxoindolin-3-ylidene)-4-oxo-2-thioxothiazolidin-3-yl)propanoic acid]",,,29 ± 1 µM,> 40 µM,,,,,24 ± 2 µM,22 ± 1 µM,> 40 µM,> 40 µM,> 40 µM,,
"O=C(O)CCN1C(=O)/C(=C2/C(=O)Nc3ccc([N+](=O)[O-])cc32)SC1=S [Compound 1169, (Z)-3-(5-(5-Nitro-2-oxoindolin-3-ylidene)-4-oxo-2-thioxothiazolidin-3-yl)propanoic acid]",,,30 ± 3 µM,27 ± 8 µM,,,,,20 ± 10 µM,28 ± 7 µM,29 ± 5 µM,> 40 µM,> 40 µM,,
"O=C(O)CCN1C(=O)/C(=C2/C(=O)Nc3ccc(I)cc32)SC1=S [Compound 2005, (Z)-3-(5-(5-Iodo-2-oxoindolin-3-ylidene)-4-oxo-2-thioxothiazolidin-3-yl)propanoic acid]",,,25 ± 6 µM,> 40 µM,,,,,21 ± 2 µM,> 40 µM,> 40 µM,> 40 µM,> 40 µM,,
O=C(O)CCN1C(=O)C(C2(O)C(=O)Nc3ccc(F)cc32)SC1=S (centres unmarked) [Compound 2021],,,> 40 µM,> 40 µM,,,,,> 40 µM,,> 40 µM,,> 40 µM,> 40 µM,> 40 µM
O=C(O)CCN1C(=O)SC(C2(O)C(=O)Nc3ccc(Cl)cc32)C1=O (centres unmarked) [Compound 2023],,,21 ± 3 µM,> 40 µM,,,,,> 40 µM,,> 40 µM,,> 40 µM,21 ± 10 µM,> 40 µM
O=C(O)CCN1C(=O)C(C2(O)C(=O)Nc3ccc(Br)cc32)SC1=S (centres unmarked) [Compound 2025],,,14 ± 2 µM,22 ± 7 µM,,,,,15 ± 8 µM,,> 40 µM,,> 40 µM,13 ± 1 µM,> 40 µM
O=C(O)CCN1C(=O)SC(C2(O)C(=O)Nc3ccc(I)cc32)C1=O (centres unmarked) [Compound 2027],,,7 ± 1 µM,> 40 µM,,,,,6 ± 2 µM,,14 ± 3 µM,,> 40 µM,8 ± 1 µM,> 40 µM
"O=C(O)CN1C(=O)/C(=C2/C(=O)Nc3ccc(F)cc32)SC1=S [Compound 2033, (Z)-2-(5-(5-Fluoro-2-oxoindolin-3-ylidene)-4-oxo-2-thioxothiazolidin-3-yl)acetic acid]",,,> 40 µM,> 40 µM,,,,,> 40 µM,> 40 µM,> 40 µM,> 40 µM,> 40 µM,,
"O=C(O)CN1C(=O)/C(=C2/C(=O)Nc3c(F)cccc32)SC1=S [Compound 2035, (Z)-2-(5-(7-Fluoro-2-oxoindolin-3-ylidene)-4-oxo-2-thioxothiazolidin-3-yl)acetic acid]",,,> 40 µM,> 40 µM,,,,,> 40 µM,> 40 µM,> 40 µM,> 40 µM,> 40 µM,,

# Further lines, with some results ahead:
GI50 (SUDHL6 DLBCL cells; [1]),"GI50 (SUDHL6 DLBCL cells; Table 13, BCL6 dependent, read-out: GI50 SUDHL6)",GI50 (SUDHL6 DLBCL cells; [2]),GI50 (Karpas 422 DLBCL cells),Compound,"GI50 (Ly7 DLBCL cells; Table 10, BCL6 dependent)","GI50 (Toledo DLBCL cells; Table 10, BCL6 independent)","GI50 (Ly7 DLBCL cells; Table 13, BCL6 dependent)","GI50 (Toledo DLBCL cells; Table 13, BCL6 independent)",GI50 (Ly10 DLBCL cells),"GI50 (Ly7 DLBCL cells; 48 h, Table 2, BCL-6 dependent)",GI50 (Ly3 DLBCL cells),GI50 (Toledo DLBCL cells; [3]),GI50 (Ly1B50 DLBCL cells),GI50 (Ly7 DLBCL cells; [4]),GI50 (Toledo DLBCL cells; [5])
> 125 µM,,,,Cc1ccc(COC(=O)Cn2c(=O)oc3cc(Cl)ccc32)cc1 [Compound 333],> 125 µM,> 125 µM,,,,,,,,,
> 125 µM,,,,Cc1cccc(COC(=O)Cn2c(=O)oc3cc(Cl)ccc32)c1 [Compound 334],> 125 µM,> 125 µM,,,,,,,,,
> 125 µM,,,,O=C(Cn1c(=O)oc2cc(Cl)ccc21)OCc1ccc(C(F)(F)F)cc1 [Compound 339],> 125 µM,> 125 µM,,,,,,,,,
> 125 µM,,,,C[C@@H](OC(=O)Cn1c(=O)oc2cc(Cl)ccc21)c1ccccc1 [Compound 341],> 125 µM,> 125 µM,,,,,,,,,
,> 125 µM,,,COc1ccc2[nH]c(SCc3ccccc3)nc2c1 [Compound 1059],,,> 125 µM,> 125 µM,,,,,,,
,,> 40 µM,> 40 µM,"Cc1cc(Cl)cc2c1NC(=O)/C2=C1\SC(=S)N(CCC(=O)O)C1=O [Compound 1095, (Z)-3-(5-(5-Chloro-7-methyl-2-oxoindolin-3-ylidene)-4-oxo-2-thioxothiazolidin-3-yl)propanoic acid]",,,,,> 40 µM,> 40 µM,> 40 µM,> 40 µM,> 40 µM,,
,,> 40 µM,> 40 µM,"Cc1ccc2c(c1)/C(=C1/SC(=S)N(CCC(=O)O)C1=O)C(=O)N2 [Compound 1097, (Z)-3-(5-(5-Methyl-2-oxoindolin-3-ylidene)-4-oxo-2-thioxothiazolidin-3-yl)propanoic acid]",,,,,18 ± 8 µM,> 40 µM,> 40 µM,> 40 µM,> 40 µM,,
,,> 40 µM,> 40 µM,"O=C(O)CCN1C(=O)/C(=C2/C(=O)Nc3ccccc32)SC1=S [Compound 2001, (Z)-3-(4-Oxo-5-(2-oxoindolin-3-ylidene)-2-thioxothiazolidin-3-yl)propanoic acid]",,,,,> 40 µM,> 40 µM,> 40 µM,> 40 µM,> 40 µM,,
,,> 6 µM,> 6 µM,"CCOC(=O)CCN1C(=O)/C(=C2/C(=O)Nc3ccc(Cl)cc32)SC1=S [Compound 2003, (Z)-Ethyl 3-(5-(5-chloro-2-oxoindolin-3-ylidene)-4-oxo-2-thioxothiazolidin-3-yl)propanoate]",,,,,> 6 µM,> 6 µM,> 6 µM,> 6 µM,> 6 µM,,
,,> 40 µM,> 40 µM,"O=C(O)CN1C(=O)/C(=C2/C(=O)Nc3ccc(Cl)cc32)SC1=S [Compound 2031, (Z)-2-(5-(5-Chloro-2-oxoindolin-3-ylidene)-4-oxo-2-thioxothiazolidin-3-yl)acetic acid]",,,,,> 40 µM,> 40 µM,> 40 µM,> 40 µM,> 40 µM,,
,,> 40 µM,> 40 µM,"O=C(O)CN1C(=O)/C(=C2/C(=O)Nc3c(Cl)cccc32)SC1=S [Compound 2037, (Z)-2-(5-(7-Chloro-2-oxoindolin-3-ylidene)-4-oxo-2-thioxothiazolidin-3-yl)acetic acid]",,,,,> 40 µM,> 40 µM,> 40 µM,> 40 µM,> 40 µM,,
